Columns and labels:
[1] = The drug is tested on Bacteroides sp. WH2 strain: WH2 for biotransformation. The drug concentrations were measured before and after a 12-h incubation by liquid-chromatography-coupled mass spectrometry (LC–MS); settings: bacteroides sp. wh2, 12 h, 2 µM
[2] = The drug is tested on Bacteroides finegoldii strain: DSM17565 for biotransformation. The drug concentrations were measured before and after a 12-h incubation by liquid-chromatography-coupled mass spectrometry (LC–MS); settings: 2 µM
[3] = The drug is tested on Bacteroides ovatus strain: ATCC8483 for biotransformation. The drug concentrations were measured before and after a 12-h incubation by liquid-chromatography-coupled mass spectrometry (LC–MS); settings: 2 µM
[4] = limosilactobacillus reuteri cf48-3a, 12 h, 2 µM
Description: The drug is tested on Lactobacillus reuteri CF48-3A strain: BEI HM-102 for biotransformation. The drug concentrations were measured before and after a 12-h incubation by liquid-chromatography-coupled mass spectrometry (LC–MS)

[5] = The drug is tested on Bacteroides vulgatus strain: ATCC8482 for biotransformation. The drug concentrations were measured before and after a 12-h incubation by liquid-chromatography-coupled mass spectrometry (LC–MS); settings: phocaeicola vulgatus, 2 µM
[6] = The drug is tested on Clostridium scindens strain: ATCC35704 for biotransformation. The drug concentrations were measured before and after a 12-h incubation by liquid-chromatography-coupled mass spectrometry (LC–MS); settings: 2 µM
[7] = The drug is tested on Collinsella aerofaciens strain: ATCC25986 for biotransformation. The drug concentrations were measured before and after a 12-h incubation by liquid-chromatography-coupled mass spectrometry (LC–MS); settings: 2 µM
[8] = The drug is tested on Odoribacter splanchnicus strain: fecal isolate for biotransformation. The drug concentrations were measured before and after a 12-h incubation by liquid-chromatography-coupled mass spectrometry (LC–MS); settings: 2 µM
[9] = The drug is tested on Bifidobacterium breve strain: DSM20213 for biotransformation. The drug concentrations were measured before and after a 12-h incubation by liquid-chromatography-coupled mass spectrometry (LC–MS); settings: 2 µM
[10] = The drug is tested on Ruminococcus gnavus strain: ATCC29149 for biotransformation. The drug concentrations were measured before and after a 12-h incubation by liquid-chromatography-coupled mass spectrometry (LC–MS); settings: mediterraneibacter gnavus, 2 µM
[11] = bacteroides fragilis, 12 h, 2 µM
Description: The drug is tested on Bacteroides fragilis strain: DS-208 for biotransformation. The drug concentrations were measured before and after a 12-h incubation by liquid-chromatography-coupled mass spectrometry (LC–MS)

[12] = bacteroides stercoris, 12 h, 2 µM
Description: The drug is tested on Bacteroides stercoris strain: ATCC43183 for biotransformation. The drug concentrations were measured before and after a 12-h incubation by liquid-chromatography-coupled mass spectrometry (LC–MS)

[13] = The drug is tested on Enterococcus faecalis strain: V583 for biotransformation. The drug concentrations were measured before and after a 12-h incubation by liquid-chromatography-coupled mass spectrometry (LC–MS); settings: 2 µM
[14] = bacteroides thetaiotaomicron, 12 h, 2 µM
Description: The drug is tested on Bacteroides thetaiotaomicron strain: 7330 for biotransformation. The drug concentrations were measured before and after a 12-h incubation by liquid-chromatography-coupled mass spectrometry (LC–MS)

[15] = The drug is tested on Edwardsiella tarda strain: ATCC23685 for biotransformation. The drug concentrations were measured before and after a 12-h incubation by liquid-chromatography-coupled mass spectrometry (LC–MS); settings: 2 µM
[16] = bacteroides thetaiotaomicron, 12 h, 2 µM; remark: listed apart in the source
Description: The drug is tested on Bacteroides thetaiotaomicron strain: VPI-5482 for biotransformation. The drug concentrations were measured before and after a 12-h incubation by liquid-chromatography-coupled mass spectrometry (LC–MS)

[17] = The drug is tested on Dorea formicigenerans strain: ATCC27755 for biotransformation. The drug concentrations were measured before and after a 12-h incubation by liquid-chromatography-coupled mass spectrometry (LC–MS); settings: 2 µM
[18] = The drug is tested on Bacteroides caccae strain: ATCC43185 for biotransformation. The drug concentrations were measured before and after a 12-h incubation by liquid-chromatography-coupled mass spectrometry (LC–MS); settings: 2 µM
[19] = parabacteroides johnsonii, 12 h, 2 µM
Description: The drug is tested on Parabacteroides johnsonii strain: DSM18315 for biotransformation. The drug concentrations were measured before and after a 12-h incubation by liquid-chromatography-coupled mass spectrometry (LC–MS)

Row | Structure (SMILES) | Bacterial Biotransformation [1] | Bacterial Biotransformation [2] | Bacterial Biotransformation [3] | Bacterial Biotransformation [4] | Bacterial Biotransformation [5] | Bacterial Biotransformation [6] | Bacterial Biotransformation [7] | Bacterial Biotransformation [8] | Bacterial Biotransformation [9] | Bacterial Biotransformation [10] | Bacterial Biotransformation [11] | Bacterial Biotransformation [12] | Bacterial Biotransformation [13] | Bacterial Biotransformation [14] | Bacterial Biotransformation [15] | Bacterial Biotransformation [16] | Bacterial Biotransformation [17] | Bacterial Biotransformation [18] | Bacterial Biotransformation [19]
1 | CN[C@H]1CC[C@@H](c2ccc(Cl)c(Cl)c2)c2ccccc21 [SERTRALINE] | Compound NOT metabolized | Compound NOT metabolized | Compound NOT metabolized | Compound NOT metabolized | Compound NOT metabolized | Compound NOT metabolized | Compound NOT metabolized | Compound NOT metabolized | Compound NOT metabolized | Compound NOT metabolized | Compound NOT metabolized | Compound NOT metabolized | Compound NOT metabolized | Compound NOT metabolized | Compound NOT metabolized | Compound NOT metabolized | Compound NOT metabolized | Compound NOT metabolized | Compound NOT metabolized
2 | COc1ccc(C(CN(C)C)C2(O)CCCCC2)cc1 (stereo not given) [VENLAFAXINE] | Compound NOT metabolized | Compound NOT metabolized | Compound NOT metabolized | Compound NOT metabolized | Compound NOT metabolized | Compound NOT metabolized | Compound NOT metabolized | Compound NOT metabolized | Compound NOT metabolized | Compound NOT metabolized | Compound NOT metabolized | Compound NOT metabolized | Compound NOT metabolized | Compound NOT metabolized | Compound NOT metabolized | Compound NOT metabolized | Compound NOT metabolized | Compound NOT metabolized | Compound NOT metabolized
3 | N#Cc1ccc2[nH]cc(CCCCN3CCN(c4ccc5oc(C(N)=O)cc5c4)CC3)c2c1 [VILAZODONE] | Compound metabolized |  | Compound metabolized | Compound NOT metabolized | Compound metabolized | Compound NOT metabolized | Compound NOT metabolized | Compound metabolized | Compound NOT metabolized | Compound NOT metabolized | Compound metabolized | Compound metabolized | Compound metabolized | Compound metabolized | Compound NOT metabolized | Compound metabolized | Compound NOT metabolized | Compound metabolized | Compound metabolized
4 | CC(=O)CC(c1ccccc1)c1c(O)c2ccccc2oc1=O (stereo not given) [WARFARIN] | Compound NOT metabolized | Compound NOT metabolized | Compound NOT metabolized | Compound NOT metabolized | Compound metabolized | Compound NOT metabolized | Compound NOT metabolized | Compound NOT metabolized | Compound NOT metabolized | Compound NOT metabolized | Compound NOT metabolized | Compound NOT metabolized | Compound NOT metabolized | Compound NOT metabolized | Compound NOT metabolized | Compound NOT metabolized | Compound NOT metabolized | Compound NOT metabolized | Compound NOT metabolized

Source: ChEMBL document CHEMBL5303573, “Mapping human microbiome drug metabolism by gut bacteria and their genes” (Nature, 2019)
